Measurements published in patent US20150190416A1, “FILAGGRIN PRODUCTION PROMOTER, THERAPEUTIC AGENT FOR DISEASES ASSOCIATED WITH REDUCTION IN PRODUCTION OF FILAGGRIN, AND METHOD FOR SCREENING FOR SAID THERAPEUTIC AGENT” (KYOTO UNIVERSITY, priority 2012, published 2015).

Legend:
[1] = tested on: GPR22; test: G protein-coupled receptor (GPCR) array in NHEK cells, GPR22 (Example 3); format: cell-based, human; conditions: Compound 1 1 μM, 3 days
Method: In this example, the expression-increasing effect of Compound 1 on a GPCR in NHEK cells was confirmed by using a GPCR array.
(§1) 1) 5×10^4 cells/well of NHEK cells (Invitrogen) were plated on a 24-well plate, and then 500 μl of a culture medium containing a medium for proliferating normal human epidermal keratinocytes (HuMedia-KG2, KURABO INDUSTRIES LTD.) supplemented with hEGF (0.1 ng/ml), insulin (10 μg/ml), hydrocortisone (0.5 μg/ml), gentamycin (50 μg/ml), amphotericin B (50 ng/ml), and bovine brain pituitary extract (BPE) (0.4%, v/v) were added to the plate, and the cells were cultured under the conditions of 37° C. and 5% CO2 for from 3 to 4 days until the 80 to 85% confluent state was achieved.
2) Next, a DMSO solution of Compound 1 was added to the medium at 1 μM per well, and culture was further conducted for 3 days without changing the medium. In addition, regarding the system to which only CaCl2 (1.5 mM in terms of Ca) as Ca was added and the system to which both Compound 1 and CaCl2 (1.5 mM in terms of Ca) as Ca were added, the culture was conducted in a similar manner for 3 days. As a control example, a solvent only (vehicle) was added.
3) An extraction reagent (TRIzol™, Invitrogen) was used, and according to the manufacturer's protocol, total RNA was extracted from each of cells treated in the step 2). […]

[2] = tested on: FLG monomer; test: FLG monomer in FLG gene mutant mice (flaky tail mice), Western blotting (Example 13); format: in vivo, mouse; conditions: 1 μM 10 μl/ear intradermally, ear epidermis after 8 days
Method: In this example, the expression-increasing effect of Compound 1 (N-quinolylbenzamide derivative) on FLG monomer was confirmed by using FLG gene homozygous or heterozygous mutant mouse (Jackson Laboratory, flaky tail mice). The expression of the FLG protein was confirmed by Western blotting.
1) Compound 1 (1 μM) dissolved in ultrapure water (milliQ, EMD Millipore) was injected intradermally to left and right ears of an FLG homozygous or heterozygous mutant mouse (10 μl/ear). As a control, ultrapure water (milliQ, EMD Millipore) was injected intradermally in the same manner.
2) After 3 days, Compound 1 or ultrapure water was further injected intradermally in the same manner.
3) After 8 days, ears of each mouse were cut under anesthesia, the skin of the cut ear was peeled off by pinching cartilage, and the skin on the dermal side was soaked in PBS containing 20 mM EDTA at 37° C. for 30 minutes. Next, the epidermis of the ear was peeled off and […] of Lysis buffer (0.1 M Tris-HCl (pH 9.0), 6 M Urea, 1% 2-mercapto-ethanol, 1% SDS, 1 mM EDTA, and Protease inhibitor cocktail) were added to the epidermis, and the epidermis was homogenized with an electrically powered pestle in the same manner as in the step 4) of Example 11 to prepare a sample. The sample was subjected to electrophoresis, and then to western blotting to confirm the expression of FLG monomer. […]

[3] = tested on: GPR142; test: FLG mRNA and GPR142 mRNA in GPR142-overexpressing NHEK cells (Example 7); format: cell-based, human; conditions: 10 nM, 1 day
Method: In this example, the FLG mRNA expression-inducing effect of Compound 1 in GPR142-overexpressing NHEK cells was confirmed.
as §1, with “24-well plate. Then,” for “24-well plate, and then 500 μl of”, “v/v) was” for “v/v) were”, “5% CO2.” for “5% CO2 for from 3 to 4 days until the 80 to 85% confluent state was achieved.”
2) A GPR142pCXN mammalian expression vector was prepared by incorporating a human GPR142 gene coding region containing the base sequence set forth in SEQ ID NO: 2 into the EcoRI restriction site of the cloning site in a mammalian expression vector pCXN (Gene 108: 193-199 (1991)). […]
5) An extraction reagent (TRIzol™, Invitrogen) was used, and according to the manufacturer's protocol, total RNA was extracted from each of cells treated with the medicament. […] Real-time PCR was conducted by using the same primers as those for GPR142, FLG, and GAPDH used in Example 4 and SYBR™ PremixEx Taq (Takara) with a CFX96 real-time PCR instrument according to the manufacturer's protocol, and the amounts of GPR142 mRNA and FLG mRNA were measured. […]

With `CCc1ccc(OCc2ccccc2C(=O)Nc2ccc3nc(C)cc(N)c3c2)cc1.Cl` [Compound 1, N-(4-Amino-2-methyl-6-quinolyl)-2-[(4-ethylphenoxy)methyl]benzamide hydrochloride] the “GPR22 mRNA expression (GPCR array), in words” value ([1]; Ca 1.5 mM) was “expression was induced”, the “GPR22: cycle number (ΔCt value) to 18S ribosomal RNA” value ([1]; CaCl2 1.5 mM in terms of Ca, control 29.2) was 6.7 and the “production of FLG monomer” value ([2]; FLG heterozygous mutant mouse) was “production of the FLG monomer caused by Compound 1 was confirmed”. For the same compound, the “production of FLG monomer” value ([2]; FLG homozygous mutant mouse) was “production of the FLG monomer was not observed”, the “FLG mRNA expression (GAPDH ratio)” value ([3]; GPR142-overexpressing NHEK cells) was “increased FLG mRNA expression” and the “expression amount of GPR142 mRNA, increase as compared to the control” value ([3]; NHEK cells) was “about 2.2 times”.
